Measurements reported in US20240293379A1, “THERAPEUTIC AGENT FOR CANCER OF PATIENT WITH DECREASE IN RB1 FUNCTION USING MYT1 INHIBITOR AND CHEMOTHERAPEUTIC AGENT IN COMBINATION, AND TREATMENT METHOD THEREOF” (Chugai Seiyaku Kabushiki Kaisha, priority 2022, published 2024).
Where two headings read alike, the source gives them in different places.

Columns and labels:
Assay in all cases: Pemetrexed cytotoxicity test upon suppression of expression of MYT1
Type in all cases: cell-based
[1] = system: ABC-1; conditions: Homo sapiens, ABC-1 (RB1 wild-type), 7 days
Method: (§1) Thereafter, the plates were shaken to transfect each siRNA at a final concentration of 10 nM.
(§2) The −Log 2 value of fold change of IC50 and the maximum value of Bliss score, which are indexes of the combination effect, were calculated by comparing with the actually obtained cell survival curve, and described in Table 6 (see Non Patent Literature 9).

[2] = system: NCI-H322; conditions: NCI-H322 (RB1 wild-type), 7 days
Method: as §1, §2

[3] = system: PC-9; conditions: Homo sapiens, PC-9 (RB1 wild-type), 7 days
Method: as §1, §2

[4] = system: NCI-H441; conditions: Homo sapiens, NCI-H441 (RB1 wild-type), 7 days
Method: as §1, §2

[5] = system: NCI-H358; conditions: Homo sapiens, NCI-H358 (RB1 wild-type), 7 days
Method: as §1, §2

[6] = system: NCI-H1993; conditions: Homo sapiens, NCI-H1993 (RB1 wild-type), 7 days
Method: as §1, §2

[7] = system: ChaGo-K-1; conditions: Homo sapiens, ChaGo-K-1 (RB1 mutant), 7 days
Method: as §1, §2

[8] = system: NCI-H1666; conditions: Homo sapiens, NCI-H1666 (RB1 wild-type), 7 days
Method: as §1, §2

[9] = system: NCI-H1155; conditions: Homo sapiens, NCI-H1155 (RB1 mutant), 7 days
Method: as §1, §2

[10] = system: HOP-62; conditions: Homo sapiens, HOP-62 (RB1 wild-type), 7 days
Method: as §1, §2

[11] = system: A549; conditions: Homo sapiens, A549 (RB1 wild-type), 7 days
Method: as §1, §2

[12] = system: NCI-H596; conditions: Homo sapiens, NCI-H596 (RB1 mutant), 7 days
Method: as §1, §2

[13] = system: LU65; conditions: Homo sapiens, LU65 (RB1 mutant), 7 days
Method: as §1, §2

[14] = system: NCI-H2110; conditions: NCI-H2110 (RB1 mutant), 7 days
Method: as §1, §2

[15] = system: EKVX; conditions: Homo sapiens, EKVX (RB1 wild-type), 7 days
Method: as §1, §2

[16] = system: NCI-H2122; conditions: Homo sapiens, NCI-H2122 (RB1 wild-type), 7 days
Method: as §1, §2

[17] = system: NCI-H292; conditions: Homo sapiens, NCI-H292 (RB1 wild-type), 7 days
Method: as §1, §2

[18] = system: NCI-H460; conditions: Homo sapiens, NCI-H460 (RB1 wild-type), 7 days
Method: as §1, §2

[19] = read-out: IC50 of pemetrexed, MYT1 #16, MYT1 siRNA #16 10 nM
[20] = read-out: IC50 of pemetrexed, MYT1 #18, MYT1 siRNA #18 10 nM
[21] = read-out: IC50 of pemetrexed, NT, negative control siRNA 10 nM

`Nc1nc2[nH]cc(CCc3ccc(C(=O)N[C@@H](CCC(=O)O)C(=O)O)cc3)c2c(=O)[nH]1` [pemetrexed] was tested, and the IC50 [1, 19] was 363 nM, the IC50 [1, 20] was 313 nM and the IC50 [1, 21] was 973 nM. It also gave an IC50 [2, 19] of 1030 nM, an IC50 [2, 20] of 805 nM and an IC50 [2, 21] of 1600 nM. The IC50 [3, 19] was 32.9 nM, the IC50 [3, 20] was 77.7 nM and the IC50 [3, 21] was 145 nM. It also gave an IC50 [4, 19] of 95.6 nM, an IC50 [4, 20] of 865 nM and an IC50 [4, 21] of 884 nM. It also gave an IC50 [5, 19] of 531 nM, an IC50 [5, 20] of 333 nM and an IC50 [5, 21] of 986 nM. For the same molecule, the IC50 [6, 19] was 24.6 nM, the IC50 [6, 20] was 106 nM and the IC50 [6, 21] was 181 nM. It also gave an IC50 [7, 19] of 133 nM, an IC50 [7, 20] of 192 nM and an IC50 [7, 21] of 914 nM. It also gave an IC50 [8, 19] of 473 nM, an IC50 [8, 20] of 291 nM and an IC50 [8, 21] of 619 nM. It also gave an IC50 [9, 19] of 673 nM, an IC50 [9, 20] of 1650 nM and an IC50 [9, 21] of 9840 nM. It also gave an IC50 [10, 19] of 98.1 nM, an IC50 [10, 20] of 91.9 nM and an IC50 [10, 21] of 175 nM. For the same molecule, the IC50 [11, 19] was 1530 nM, the IC50 [11, 20] was 1950 nM and the IC50 [11, 21] was 2850 nM. The IC50 [12, 19] was 7.01 nM, the IC50 [12, 20] was 21 nM and the IC50 [12, 21] was 385 nM. It also gave an IC50 ([13]; Lu-65, read-out: IC50 of pemetrexed, MYT1 #16, MYT1 siRNA #16 10 nM) of 134 nM, an IC50 ([13]; Lu-65, read-out: IC50 of pemetrexed, MYT1 #18, MYT1 siRNA #18 10 nM) of 140 nM and an IC50 ([13]; Lu-65, read-out: IC50 of pemetrexed, NT, negative control siRNA 10 nM) of 1070 nM. The IC50 [14, 19] was 10.5 nM, the IC50 [14, 20] was 41.4 nM and the IC50 [14, 21] was 227 nM. It also gave an IC50 [15, 19] of 166 nM, an IC50 [15, 20] of 263 nM and an IC50 [15, 21] of 404 nM. The IC50 [16, 19] was 13.5 nM, the IC50 [16, 20] was 47.2 nM and the IC50 [16, 21] was 159 nM. The IC50 [17, 19] was 71.1 nM, the IC50 [17, 20] was 187 nM and the IC50 [17, 21] was 391 nM. It also gave an IC50 [18, 19] of 465 nM, an IC50 [18, 20] of 563 nM and an IC50 [18, 21] of 667 nM.
